We go through 1 compound from US6686344B1, “Organic-arsonic compounds” (Paker Hughes Institute, priority 2003, dated 2004).

Series [1] deals with NALM-6 (B-lineage ALL). As to the kind of experiment: MTT cytotoxicity assay, NALM-6. The series is classed as cell-based. As to conditions: Homo sapiens, NALM-6 cells, 24-36 hours incubation. As to the method: (§1) The cytotoxicity of compound II was evaluated against two acute lymphoblastic leukemia (ALL) cell lines, NALM-6 (B-lineage ALL), and MOLT-3 (T-lineage ALL) using MTT (3-[4,5-dimethylthiazol-2-yl]-2,5-diphenyl tetrazolium bromide) assay (Boehringer Mannheim Corp., Indianapolis, Ind. The human leukemic cell lines (NALM-6, and MOLT-3) were obtained from the American Type Culture Collection and maintained as a continuous cell line in Dulbecco's modified Eagles's medium supplemented with 10% fetal bovine serum and antibiotics. Briefly, exponentially growing cells were seeded into a 96-well plate at a density of 2.5×10^4 cells/well and incubated for 36 hours at 37° C. prior to exposure to the compound. On the day of treatment, culture medium was carefully aspirated from the wells and replaced with fresh medium containing compound II at concentrations ranging from 0.1 to 250 μM. Triplicate wells were used for each treatment.
(§2) The cells were incubated with compound II for 24-36 hours at 37° C. in a humidified 5% CO2 atmosphere. […] The absorbance of each well was measured in a microplate reader (Labsystems) at 540 nm and a reference wavelength of 690 nm. […] The percent survival was calculated using the formula: [formula]
(§3) The IC50 values for cytotoxic activity were determined using Graph-pad Prism software, version 2.0 (San Diego, Calif., USA) and are shown below in Table 1.
For orientation: Tetrazolium assays rely on reduction of a dye to a coloured formazan, in cell work by metabolically active cells.

In series [2] the test system is MOLT-3 (T-lineage ALL). As to the kind of experiment: MTT cytotoxicity assay, MOLT-3. The series is classed as cell-based. The note with it: Homo sapiens, MOLT-3 cells, 24-36 hours incubation. How it is done:
as §1, §2, §3

Take `O=[As](O)(O)c1ccc(N=Nc2ccc(Nc3nc(C(Cl)(Cl)Cl)nc4ccccc34)cc2)cc1` [Compound II, 2-Trichloromethyl-4-4-[4′-(4″-phenylazo)phenylarsonic Acid]-aminoquinazoline]: the melting point (in general, the temperature, or range, at which the solid turns liquid) is above 300 °C. Further, the concentration for half-maximal inhibition (IC50) (usually the concentration at which inhibition is half-maximal) in series [1] worked out at 1.1 ± 0.5 µM. The compound also showed an IC50 in series [2] of 2 ± 0.8 µM.
